According to ChEMBL document CHEMBL2157897, “Meso-tetrakis(p-sulfonatophenyl)N-confused porphyrin tetrasodium salt: a potential sensitizer for photodynamic therapy” (J Med Chem, 2012):
pIC50: −log10 of the molar value. Activity calls are given as the source filed them. No cut-off for these calls is given here.

What was measured:
MDA-MB-231 [1] = assay: Induction of ROS generation in human MDA-MB-231 cells using CM-H2DCFDA as probe at 12 uM after 24 hrs post photoirradiation by FACS flow cytometry (reference value: 13.7 +/- 2.3 %); format: functional
HCT-116 [2] = assay: Cytotoxicity against human HCT116 cells assessed as cell viability at 10 to 50 uM after 24 hrs by MTT assay in absence of light; format: cell-based; conditions: hct-116, 24 h
MDA-MB-231 [3] = assay: Cytotoxicity against human MDA-MB-231 cells assessed as cell viability at 10 to 50 uM after 24 hrs by MTT assay in absence of light; format: cell-based; conditions: mda-mb-231, 24 h
MDA-MB-231 [4] = assay: Ratio of IC50 for human HeLa cells to IC50 for human MDA-MB-231 cells; format: functional
[5] = Photocytotoxicity against human SCC172 cells preincubated for 1 hr prior to illumination measured after 24 hrs post illumination by MTT assay; format: functional, cell-based
MDA-MB-231 [6] = assay: Induction of apoptosis in human MDA-MB-231 cells assessed as PARP cleavage at 6 and 12 uM preincubated for 1 hr followed by photoirradiation by immunoblotting; format: functional, cell-based
MIA PaCa-2 [7] = assay: Photocytotoxicity against human MIAPaCa2 cells preincubated for 1 hr prior to illumination measured after 24 hrs post illumination by MTT assay; format: functional, cell-based
MCF7 [8] = assay: Photocytotoxicity against human MCF7 cells preincubated for 1 hr prior to illumination measured after 24 hrs post illumination by MTT assay; format: functional, cell-based
SiHa [9] = assay: Cytotoxicity against human SiHa cells assessed as cell viability at 10 to 50 uM after 24 hrs by MTT assay in absence of light; format: cell-based
[10] = Photocytotoxicity against human SCC131 cells preincubated for 1 hr prior to illumination measured after 24 hrs post illumination by MTT assay; format: functional, cell-based
MDA-MB-231 [11] = assay: Photocytotoxicity against human MDA-MB-231 cells preincubated for 1 hr prior to illumination measured after 24 hrs post illumination by MTT assay; format: functional, cell-based
MDA-MB-231 [12] = assay: Induction of apoptosis in human MDA-MB-231 cells assessed as decrease in mitochondrial membrane potential at 12 uM preincubated for 1 hr followed by photoirradiation measured after 24 hrs by JC1 staining based fluorescence microscopy (reference value: 12.1 +/- 4.9 %); format: functional; parameters: scale not given: the % may be the effect or the level left
MDA-MB-231 [13] = assay: Induction of apoptosis in human MDA-MB-231 cells assessed as chromatin condensation at 6 uM preincubated for 1 hr followed by photoirradiation measured after 24 hrs by Hoechst staining based fluorescence microscopy (reference value: 10.4 +/- 1.5 %); format: functional
MDA-MB-231 [14] = assay: Induction of apoptosis in human MDA-MB-231 cells assessed as chromatin condensation preincubated for 1 hr followed by photoirradiation measured after 24 hrs by Hoechst staining based fluorescence microscopy; format: functional, cell-based
MDA-MB-231 [15] = assay: Induction of apoptosis in human MDA-MB-231 cells assessed as early apoptotic cells at 6 uM preincubated for 1 hr followed by photoirradiation by annexin V-FITC/propidium iodide staining based flow cytometry (reference value: 3.5 +/- 0.41 %); format: functional
[16] = Cytotoxicity against human SCC172 cells assessed as cell viability at 10 to 50 uM after 24 hrs by MTT assay in absence of light; format: cell-based; conditions: scc172, 24 h
SiHa [17] = assay: Photocytotoxicity against human SiHa cells preincubated for 1 hr prior to illumination measured after 24 hrs post illumination by MTT assay; format: functional, cell-based
MDA-MB-231 [18] = assay: Induction of ROS generation in human MDA-MB-231 cells using CM-H2DCFDA as probe after 24 hrs post photoirradiation by FACS flow cytometry; format: functional, cell-based
MDA-MB-231 [19] = assay: Induction of apoptosis in human MDA-MB-231 cells at 12 uM after 1 hr by annexin V-FITC/propidium iodide staining based flow cytometry in absence of light; format: cell-based; conditions: mda-mb-231, 1 h
MIA PaCa-2 [20] = assay: Cytotoxicity against human MIAPaCa2 cells assessed as cell viability at 10 to 50 uM after 24 hrs by MTT assay in absence of light; format: cell-based; conditions: mia paca-2, 24 h
MDA-MB-231 [21] = assay: Induction of apoptosis in human MDA-MB-231 cells assessed as chromatin condensation at 12 uM preincubated for 1 hr followed by photoirradiation measured after 24 hrs by Hoechst staining based fluorescence microscopy (reference value: 10.4 +/- 1.5 %); format: functional
MDA-MB-231 [22] = assay: Induction of ROS generation in human MDA-MB-231 cells using CM-H2DCFDA as probe at 6 uM after 24 hrs post photoirradiation by FACS flow cytometry (reference value: 13.7 +/- 2.3 %); format: functional
HeLa [23] = assay: Photocytotoxicity against human HeLa cells preincubated for 1 hr prior to illumination measured after 24 hrs post illumination by MTT assay; format: functional, cell-based
MCF7 [24] = assay: Cytotoxicity against human MCF7 cells assessed as cell viability at 10 to 50 uM after 24 hrs by MTT assay in absence of light; format: cell-based; conditions: mcf7, 24 h
MDA-MB-231 [25] = assay: Induction of apoptosis in human MDA-MB-231 cells assessed as decrease in mitochondrial membrane potential at 6 uM preincubated for 1 hr followed by photoirradiation measured after 24 hrs by JC1 staining based fluorescence microscopy (reference value: 12.1 +/- 4.9 %); format: functional; parameters: scale not given: the % may be the effect or the level left
MDA-MB-231 [26] = assay: Induction of apoptosis in human MDA-MB-231 cells assessed as early apoptotic cells at 12 uM preincubated for 1 hr followed by photoirradiation by annexin V-FITC/propidium iodide staining based flow cytometry (reference value: 3.5 +/- 0.41 %); format: functional
MDA-MB-231 [27] = assay: Induction of apoptosis in human MDA-MB-231 cells assessed as PARP cleavage at 12 uM after 1 hr by immunoblotting in absence of light; format: cell-based; conditions: mda-mb-231, 1 h
[28] = Cytotoxicity against human SCC131 cells assessed as cell viability at 10 to 50 uM after 24 hrs by MTT assay in absence of light; format: cell-based; conditions: scc131, 24 h
HCT-116 [29] = assay: Photocytotoxicity against human HCT116 cells preincubated for 1 hr prior to illumination measured after 24 hrs post illumination by MTT assay; format: functional, cell-based
HeLa [30] = assay: Cytotoxicity against human HeLa cells assessed as cell viability at 10 to 50 uM after 24 hrs by MTT assay in absence of light; format: cell-based

In the case of `O=S(=O)([O-])c1ccc(-c2c3cc(c(-c4ccc(S(=O)(=O)[O-])cc4)c4ccc([nH]4)c(-c4ccc(S(=O)(=O)[O-])cc4)c4nc(c(-c5ccc(S(=O)(=O)[O-])cc5)c5ccc2[nH]5)C=C4)N=C3)cc1.[Na+].[Na+].[Na+].[Na+]`, the Activity (MDA-MB-231 [1]) was 79.5%, the Activity (HCT-116 [2]) was “Non-toxic” and the Activity (MDA-MB-231 [3]) was “Non-toxic”. For the same compound, the “Ratio IC50” value (MDA-MB-231 [4]) was 5, the pIC50 [5] was 4.96 and the Activity (MDA-MB-231 [6]) was “Active”. For the same compound, the pIC50 (MIA PaCa-2 [7]) was 5.10, the pIC50 (MCF7 [8]) was 4.92 and the Activity (SiHa [9]) was “Non-toxic”. It also gave a pIC50 [10] of 4.89, a pIC50 (MDA-MB-231 [11]) of 5.22 and an Activity (MDA-MB-231 [12]) of 88.5%. For the same compound, the Activity (MDA-MB-231 [13]) was 72%, the Activity (MDA-MB-231 [14]) was “Dose-dependent effect” and the Activity (MDA-MB-231 [15]) was 65.8%. For the same compound, the Activity [16] was “Non-toxic”, the pIC50 (SiHa [17]) was 4.70 and the Activity (MDA-MB-231 [18]) was “Dose-dependent effect”. The Activity (MDA-MB-231 [19]) was “Non-toxic”, the Activity (MIA PaCa-2 [20]) was “Non-toxic” and the Activity (MDA-MB-231 [21]) was 91%. The Activity (MDA-MB-231 [22]) was 61.8%, the pIC50 (HeLa [23]) was 4.60 and the Activity (MCF7 [24]) was “Non-toxic”. For the same compound, the Activity (MDA-MB-231 [25]) was 69.7%, the Activity (MDA-MB-231 [26]) was 83.9% and the Activity (MDA-MB-231 [27]) was “Non-toxic”. The Activity [28] was “Non-toxic”, the pIC50 (HCT-116 [29]) was 5.10 and the Activity (HeLa [30]) was “Non-toxic”.
